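Tested at 5 concentrations; 48 h exposure; 96-well plates; endpoints linearly interpolated, else capped at highest concentration. TGI: total growth inhibition.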
How the values were obtained:
Assay in all cases: growth of human tumour cells (NCI), 48 h
OVCAR-4 ovarian = tested on: OVCAR-4 ovarian
DU-145 prostate = tested on: DU-145 prostate
OVCAR-8 ovarian = tested on: OVCAR-8 ovarian
MDA-N = tested on: MDA-N
SW-620 colon = tested on: SW-620 colon
SN12C renal = tested on: SN12C renal
LOX IMVI melanoma = tested on: LOX IMVI melanoma
NCI/ADR-RES ovarian = tested on: NCI/ADR-RES ovarian
HL-60(TB) leukemia = tested on: HL-60(TB) leukemia
HS 578T breast = tested on: HS 578T breast
786-0 renal = tested on: 786-0 renal
MOLT-4 leukemia = tested on: MOLT-4 leukemia
SF-539 CNS = tested on: SF-539 CNS
UACC-62 melanoma = tested on: UACC-62 melanoma
KM12 colon = tested on: KM12 colon
NCI-H522 lung = tested on: NCI-H522 lung
PC-3 prostate = tested on: PC-3 prostate
NCI-H23 lung = tested on: NCI-H23 lung
EKVX NSCLC = tested on: EKVX NSCLC
SR leukemia = tested on: SR leukemia
HOP-62 NSCLC = tested on: HOP-62 NSCLC
MCF7 breast = tested on: MCF7 breast
CAKI-1 renal = tested on: CAKI-1 renal
HT29 colon = tested on: HT29 colon
SNB-75 CNS = tested on: SNB-75 CNS
RXF 393 renal = tested on: RXF 393 renal
ACHN renal = tested on: ACHN renal
MALME-3M melanoma = tested on: MALME-3M melanoma
SK-MEL-28 melanoma = tested on: SK-MEL-28 melanoma
MDA-MB-435 = tested on: MDA-MB-435
IGROV1 ovarian = tested on: IGROV1 ovarian
CCRF-CEM leukemia = tested on: CCRF-CEM leukemia
OVCAR-5 ovarian = tested on: OVCAR-5 ovarian
OVCAR-3 ovarian = tested on: OVCAR-3 ovarian
K-562 leukemia = tested on: K-562 leukemia
HCT-15 colon = tested on: HCT-15 colon
M14 melanoma = tested on: M14 melanoma
SK-MEL-5 melanoma = tested on: SK-MEL-5 melanoma
HCT-116 colon = tested on: HCT-116 colon
A549 NSCLC = tested on: A549 NSCLC
UO-31 renal = tested on: UO-31 renal
RPMI-8226 leukemia = tested on: RPMI-8226 leukemia
T-47D breast = tested on: T-47D breast
COLO 205 colon = tested on: COLO 205 colon
SF-268 CNS = tested on: SF-268 CNS
SNB-19 CNS = tested on: SNB-19 CNS
HOP-92 NSCLC = tested on: HOP-92 NSCLC
SK-OV-3 ovarian = tested on: SK-OV-3 ovarian
BT-549 breast = tested on: BT-549 breast
NCI-H226 lung = tested on: NCI-H226 lung
MDA-MB-231 breast = tested on: MDA-MB-231 breast
SF-295 CNS = tested on: SF-295 CNS
SK-MEL-2 melanoma = tested on: SK-MEL-2 melanoma
A498 renal = tested on: A498 renal
DMS 114 small cell lung = tested on: DMS 114 small cell lung
DMS 273 small cell lung = tested on: DMS 273 small cell lung
M19-MEL melanoma = tested on: M19-MEL melanoma
SNB-78 CNS = tested on: SNB-78 CNS
U251 CNS = tested on: U251 CNS
TK-10 renal = tested on: TK-10 renal
NCI-H460 lung = tested on: NCI-H460 lung
UACC-257 melanoma = tested on: UACC-257 melanoma
HCC-2998 colon = tested on: HCC-2998 colon
DLD-1 colon = tested on: DLD-1 colon

Compound `COc1cc(S(=O)(=O)Nc2ccc(-c3csc(/N=C\c4ccccc4)n3)cc2)ccc1Cl` has a TGI (OVCAR-4 ovarian) of over 100 µM, a TGI (DU-145 prostate) of over 100 µM and a TGI (OVCAR-8 ovarian) of over 100 µM. It also gave a TGI (MDA-N) of over 100 µM, a TGI (SW-620 colon) of over 100 µM and a TGI (SN12C renal) of over 100 µM. It also gave a TGI (LOX IMVI melanoma) of over 100 µM, a TGI (NCI/ADR-RES ovarian) of over 100 µM and a TGI (HL-60(TB) leukemia) of over 100 µM. The TGI (HS 578T breast) was over 100 µM, the TGI (786-0 renal) was over 100 µM and the TGI (MOLT-4 leukemia) was 52.1 µM. It also gave a TGI (SF-539 CNS) of over 100 µM, a TGI (UACC-62 melanoma) of over 100 µM and a TGI (KM12 colon) of over 100 µM. It also gave a TGI (NCI-H522 lung) of over 100 µM, a TGI (PC-3 prostate) of over 100 µM and a TGI (NCI-H23 lung) of over 100 µM. It also gave a TGI (EKVX NSCLC) of over 100 µM, a TGI (SR leukemia) of over 100 µM and a TGI (HOP-62 NSCLC) of over 100 µM. The TGI (MCF7 breast) was 49.9 µM, the TGI (CAKI-1 renal) was over 100 µM and the TGI (HT29 colon) was over 100 µM. For the same compound, the TGI (SNB-75 CNS) was over 100 µM, the TGI (RXF 393 renal) was over 100 µM and the TGI (ACHN renal) was over 100 µM. For the same compound, the TGI (MALME-3M melanoma) was over 100 µM, the TGI (SK-MEL-28 melanoma) was over 100 µM and the TGI (MDA-MB-435) was over 100 µM. For the same compound, the TGI (IGROV1 ovarian) was over 100 µM, the TGI (CCRF-CEM leukemia) was over 100 µM and the TGI (OVCAR-5 ovarian) was over 100 µM. It also gave a TGI (OVCAR-3 ovarian) of over 100 µM, a TGI (K-562 leukemia) of over 100 µM and a TGI (HCT-15 colon) of over 100 µM. The TGI (M14 melanoma) was over 100 µM, the TGI (SK-MEL-5 melanoma) was over 100 µM and the TGI (HCT-116 colon) was over 100 µM. It also gave a TGI (A549 NSCLC) of over 100 µM, a TGI (UO-31 renal) of over 100 µM and a TGI (RPMI-8226 leukemia) of over 100 µM. It also gave a TGI (T-47D breast) of over 100 µM, a TGI (COLO 205 colon) of over 100 µM and a TGI (SF-268 CNS) of over 100 µM. For the same compound, the TGI (SNB-19 CNS) was over 100 µM, the TGI (HOP-92 NSCLC) was over 100 µM and the TGI (SK-OV-3 ovarian) was over 100 µM. For the same compound, the TGI (BT-549 breast) was over 100 µM, the TGI (NCI-H226 lung) was over 100 µM and the TGI (MDA-MB-231 breast) was over 100 µM. For the same compound, the TGI (SF-295 CNS) was over 100 µM, the TGI (SK-MEL-2 melanoma) was 60.6 µM and the TGI (A498 renal) was over 100 µM.

`Cc1nc2c(n1-c1ccccc1)C(=O)c1ccccc1C2=O` showed a TGI (OVCAR-4 ovarian) of over 100 µM, a TGI (DMS 114 small cell lung) of 61.3 µM and a TGI (DMS 273 small cell lung) of over 100 µM. The TGI (OVCAR-8 ovarian) was over 100 µM, the TGI (SW-620 colon) was over 100 µM and the TGI (SN12C renal) was over 100 µM. It also gave a TGI (HL-60(TB) leukemia) of 45.1 µM, a TGI (786-0 renal) of over 100 µM and a TGI (MOLT-4 leukemia) of over 100 µM. For the same compound, the TGI (SF-539 CNS) was over 100 µM, the TGI (UACC-62 melanoma) was over 100 µM and the TGI (KM12 colon) was over 100 µM. The TGI (NCI-H522 lung) was 71.8 µM, the TGI (M19-MEL melanoma) was 40.4 µM and the TGI (NCI-H23 lung) was over 100 µM. It also gave a TGI (EKVX NSCLC) of over 100 µM, a TGI (SNB-78 CNS) of over 100 µM and a TGI (SR leukemia) of over 100 µM. For the same compound, the TGI (HOP-62 NSCLC) was over 100 µM, the TGI (U251 CNS) was over 100 µM and the TGI (CAKI-1 renal) was over 100 µM. It also gave a TGI (HT29 colon) of over 100 µM, a TGI (SNB-75 CNS) of over 100 µM and a TGI (TK-10 renal) of over 100 µM. It also gave a TGI (RXF 393 renal) of over 100 µM, a TGI (ACHN renal) of over 100 µM and a TGI (MALME-3M melanoma) of 34.2 µM. For the same compound, the TGI (SK-MEL-28 melanoma) was over 100 µM, the TGI (CCRF-CEM leukemia) was over 100 µM and the TGI (OVCAR-5 ovarian) was over 100 µM. For the same compound, the TGI (OVCAR-3 ovarian) was 54.1 µM, the TGI (K-562 leukemia) was over 100 µM and the TGI (NCI-H460 lung) was over 100 µM. It also gave a TGI (HCT-15 colon) of over 100 µM, a TGI (M14 melanoma) of over 100 µM and a TGI (SK-MEL-5 melanoma) of over 100 µM. The TGI (HCT-116 colon) was 73.1 µM, the TGI (A549 NSCLC) was over 100 µM and the TGI (UACC-257 melanoma) was 51.5 µM. It also gave a TGI (UO-31 renal) of over 100 µM, a TGI (SF-268 CNS) of over 100 µM and a TGI (SNB-19 CNS) of over 100 µM. The TGI (SK-OV-3 ovarian) was over 100 µM, the TGI (NCI-H226 lung) was over 100 µM and the TGI (SF-295 CNS) was over 100 µM. The TGI (SK-MEL-2 melanoma) was over 100 µM, the TGI (A498 renal) was over 100 µM and the TGI (HCC-2998 colon) was over 100 µM. It also gave a TGI (DLD-1 colon) of over 100 µM.
